The target in one assay is T1, human oxytocin receptor (Homo sapiens, UniProt P30559).
T1 construct: host or cells: CHO cells, stably transfected (pcDNA3.1 vector); membranes
T1 sequence (P30559 1-389): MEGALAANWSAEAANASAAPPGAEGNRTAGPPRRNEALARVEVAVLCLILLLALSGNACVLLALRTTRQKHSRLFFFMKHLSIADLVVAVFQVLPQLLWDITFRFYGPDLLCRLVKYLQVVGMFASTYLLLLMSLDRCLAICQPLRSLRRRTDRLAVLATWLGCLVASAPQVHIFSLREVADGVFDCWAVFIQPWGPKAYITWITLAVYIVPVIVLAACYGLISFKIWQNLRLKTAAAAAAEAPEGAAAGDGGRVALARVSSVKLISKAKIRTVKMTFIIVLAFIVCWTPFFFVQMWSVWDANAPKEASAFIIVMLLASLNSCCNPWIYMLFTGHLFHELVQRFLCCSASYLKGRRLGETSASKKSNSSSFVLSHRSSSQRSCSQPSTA
The assay can be described thus: Oxytocin binding in CHO cell membranes expressing human oxytocin receptors ([3H]oxytocin). The settings on record: 100 nM, values without parentheses. From the text:
Oxytocin Binding in Chinese Hamster Ovary Cell Membranes Expressing Human Oxytocin Receptors
Chinese Hamster Ovary (CHO) cells stably transfected with the human oxytocin (cf. Tanizawa et al., U.S. Pat. No. 5,466,584 (1995) to Rohto Pharmaceutical Co. Ltd., Osaka, Japan) were obtained from M. Thibonnier, Case Western Reserve University School of Medicine, Cleveland, Ohio. A. Passaging and Amplification of Cells: CHO cells transfected with the human oxytocin receptors obtained from M. Thibonnier (pcDNA3.1 vector) are allowed to grow to confluency (approx. >90%) in T-150 flasks under sterile conditions, in a cell culture medium of F-12 Nutrient Mixture (HAM) with L-glutamine (Gibco Cat. #11765-054) containing 15 mM HEPES (Gibco Cat. #15630-080), 1% antibiotic/antimycotic (add 5 mL 100×, Gibco Cat. #15240-062 per 500 mL F-12), 400 μg/mL of Geneticin (add 4 mL of 50 mg/mL per 500 mL F-12) and 10% Fetal Bovine Serum (Qualified, heat inactivated, Gibco Cat. #16140-063). The medium is removed by aspiration and the cells are washed with 10 mL of Hank's Balanced Salt solution (Gibco Cat. #14175-095). The salt solution is removed by aspiration and the cells trypsinized with 5 mL of trypsin-EDTA (0.05% trypsin, 0.53 mM EDTA-4Na, Gibco Cat. #25300-070) for 1 min. The trypsin is removed by aspiration and the cells dislodged by tapping. Cell Culture medium (e.g. 30 mL for 1:30 split) is immediately added and mixed well to inactivate trypsin. 1 mL of detached cells is added to new culture flasks containing fresh Cell Culture medium (e.g. into 25 mL per T-150 flask), and mixed gently. The cells are incubated at 37° C. in 5% CO2. The medium is changed at 3 to 4 days interval (or as appropriate). The cells grow to confluency (approx. >75%–95%) within 7–8 days. All steps are done under sterile conditions. B. Membrane Preparation: The cells are washed twice gently with Hank's Balanced Salt solution (e.g., use 10 mL per T-150 flask). The excess is removed and the cells bathed for 15–30 min. in an enzyme-free Cell Dissociation Buffer (e.g., use 8 mL Hank's Based, Gibco Cat. #13150-016 per T-150 flask) until cells are loosened. The contents are transferred to centrifuge tubes (50 mL size) kept in ice bath. All subsequent steps are done at 4° C. The tubes are centrifuged at 300×g for 15 min (1380 rpm on SORVAL, Model RT6000D, using rotor for 50 mL tubes). The supernatant is discarded and the cells suspended in homogenizing buffer (10 mM Tris-HCl containing 0.25 M sucrose and 1 mM EDTA, pH 7.4) ensuring that the volume of the buffer is about ten times the volume of the cell pellet. The cells are pooled into a centrifuge tube (50 mL) and homogenized with Polytron at setting 6 for 10 sec. The homogenate is transferred into a Potter-Elvjehm homogenizer and homogenized with 3 strokes. The homogenate is centrifuged at 1500×g for 10 min at 4° C. (3100 rpm using SORVAL, model RT6000D, using rotor for 50 mL tubes). The pellet. is discarded. The supernatant is centrifuged at 100,000×g for 60 min. at 4° C. (Beckman L8-80M ultracentrifuge; spin at 37,500 rpm with rotor type 70 Ti for 50 mL tubes; 38,000 rpm with type 80Ti for 15 mL tubes; or 35,800 rpm with rotor type 45Ti). The supernantant is discarded and the pellet suspended in 3 to 4 mL of Tris buffer (50 mM TRIS-HCl, pH 7.4). The protein content is estimated by the Bradford or Lowry method. The volume of the membrane suspension is adjusted with the membrane buffer (50 mM Tris-HCl containing 0.1% BSA and 0.1 mM PMSF) to give 3.0 mg/mL (or as appropriate) of protein. The membranes are aliquoted and stored at −70° C. C. Radioligand Binding Assay: In wells of a 96-well format microliter plate, is added 90, 110 or 130 μL (to make up a final volume of 200 μL) of assay buffer containing 50 mM of Tris-HCl (pH 7.4), […], 1 mg % aprotinin, 1 mg % leupeptin, 2 mg % 1,10-phenanthroline, 10 mg % trypsin inhibitor, and 0.1 mM PMSF. The inhibitors are added on the day of the experiment. […]
As to `CC(C)(C)C1CCCC=C1c1ccc(C(=O)N2Cc3cccn3Cc3ccccc32)cc1` (centres unmarked) [Example 20, (10,11-5H-Dihydro-pyrrolo[2,1-c][1,4]benzodiazepin-10-yl)-[4-(6-tert-butyl-cyclohex-1-en-1-yl)-phenyl]-methanone], the “OT % inhibition @ 100 nM” value was 27%.

Consider `O=C(c1ccc(C2=CCC3CCC2C3)cc1)N1Cc2cccn2Cc2ccccc21` (centres unmarked) [Example 21], for which the “OT % inhibition @ 100 nM” value was 38%.

Staying with this assay, now noted: 100 nM, values without parentheses, read-out: OT % inhibition @ 100 nM.
In general, inhibition refers to the relative decrease from the control value, in per cent. Turning to `CC1(C)C2CC=C(c3ccc(C(=O)N4Cc5cccn5Cc5ccccc54)cc3)C1C2` (centres unmarked) [Example 22, (10,11-Dihydro-5H-pyrrolo[2,1-c][1,4]benzodiazepin-10-yl)-[4-(6,6-dimethyl-bicyclo[3.1.1]hept-2-en-2-yl)-phenyl]-methanone], the inhibition at 0.1 µM was determined as 32%.

Consider `CC1(C)C=C(c2ccc(C(=O)N3Cc4cccn4Cc4ccccc43)cc2)CC(C)(C)C1` [Example 23, (10,11-Dihydro-5H-pyrrolo[2,1-c][1,4]benzodiazepin-10-yl)-[4-(3,3,5,5-tetramethyl-cyclohex-1-en-1-yl)-phenyl]-methanone], for which the inhibition at 0.1 µM was found to be 7%.

On to `O=C1C=C(c2ccc(C(=O)N3Cc4cccn4Cc4ccccc43)cc2)CCC1` [Example 24, 3-[4-(10,11-Dihydro-5H-pyrrolo[2,1-c][1,4]benzodiazepine-10-carbonyl)-phenyl]-cyclohex-2-en-1-one], for which the inhibition at 0.1 µM worked out at 70%.

`O=C(c1ccc(C2=CC(O)CCC2)cc1)N1Cc2cccn2Cc2ccccc21` (centres unmarked) [Example 25, (10,11-Dihydro-5H-pyrrolo[2,1-c][1,4]benzodiazepin-10-yl)-[4-(3-hydroxy-cyclohex-1-en-1-yl)-phenyl]-methanone]: the inhibition at 0.1 µM was 39%.

As to `CC1=C(c2ccc(C(=O)N3Cc4cccn4Cc4ccccc43)cc2)CCCC1=O` [Example 26, 3-[4-(10,11-Dihydro-5H-pyrrolo[2,1-c][1,4]benzodiazepine-10-carbonyl)-phenyl]-2-methyl-cyclohex-2-en-1-one], the inhibition at 0.1 µM is 80%.

On to `CC1=C(c2ccc(C(=O)N3Cc4cccn4Cc4ccccc43)cc2)CCCC1O` (centres unmarked) [Example 27, (10,11-Dihydro-5H-pyrrolo[2,1-c][1,4]benzodiazepin-10-yl)-[4-(3-hydroxy-2-methyl-cyclohex-1-en-1-yl)-phenyl]-methanone], for which the inhibition at 0.1 µM was determined as 96%.

On to `Cc1cc(C(=O)N2Cc3cccn3Cc3ccccc32)ccc1C1=CCCCC1C` (centres unmarked) [Example 29, (10,11-Dihydro-5H-pyrrolo[2,1-c][1,4]benzodiazepin-10-yl)-[3-methyl-4-(6-methyl-cyclohex-1-en-1-yl)-phenyl]-methanone], for which the inhibition at 0.1 µM was 81%.

Turning to `Cc1cc(C(=O)N2Cc3cccn3Cc3ccccc32)ccc1C1=CCCCC1(C)C` [Example 30, (10,11-Dihydro-5H-pyrrolo[2,1-c][1,4]benzodiazepin-10-yl)-[4-(6,6-dimethyl-cyclohex-1-en-1-yl)-3-methyl-phenyl]-methanone], the inhibition at 0.1 µM came to 67%.

Regarding `CC1=C(c2ccc(C(=O)N3Cc4cccn4Cc4ccccc43)cc2C)C(C)CCC1` (centres unmarked) [Example 33, (10,11-Dihydro-5H-pyrrolo[2,1-c][1,4]benzodiazepin-10-yl)-[4-(2,6-dimethyl-cyclohex-1-en-1-yl)-3-methyl-phenyl]-methanone], the inhibition at 0.1 µM stood at 56%.

As to `Cc1cc(C(=O)N2Cc3cccn3Cc3ccccc32)ccc1C1=CCCCC1C(C)(C)C` (centres unmarked) [Example 34, (10,11-Dihydro-5H-pyrrolo[2,1-c][1,4]benzodiazepin-10-yl)-[4-(6-tert-butyl-cyclohex-1-en-1-yl)-3-methyl-phenyl]-methanone], the inhibition at 0.1 µM was determined as 20%.

On to `Cc1cc(C(=O)N2Cc3cccn3Cc3ccccc32)ccc1C1=CCC2CCC1C2` (centres unmarked) [Example 35, (10,11-Dihydro-5H-pyrrolo[2,1-c][1,4]benzodiazepin-10-yl)-(4-bicyclo[3.2.1]oct-2-en-2-yl-3-methyl-phenyl)-methanone], for which the inhibition at 0.1 µM was 48%.

As to `Cc1cc(C(=O)N2Cc3cccn3Cc3ccccc32)ccc1C1=CCC2CC1C2(C)C` (centres unmarked) [Example 36, (10,11-Dihydro-5H-pyrrolo[2,1-c][1,4]benzodiazepin-10-yl)-[4-(6,6-dimethyl-bicyclo[3.1.1]hept-2-en-2-yl)-3-methyl-phenyl]-methanone], the inhibition at 0.1 µM came to 14%.

In the case of `Cc1cc(C(=O)N2Cc3cccn3Cc3ccccc32)ccc1C1=CC(C)(C)CC(C)(C)C1` [Example 37, (10,11-Dihydro-5H-pyrrolo[2,1-c][1,4]benzodiazepin-10-yl)-[3-methyl-4-(3,3,5,5-tetramethyl-cyclohex-1-en-1-yl)-phenyl]-methanone], the inhibition at 0.1 µM was 30%.

On to `COc1cccc(C2=C(c3ccc(C(=O)N4Cc5cccn5Cc5ccccc54)cc3C)CCCC2)c1` [Example 38, (10,11-Dihydro-5H-pyrrolo[2,1-c][1,4]benzodiazepin-10-yl)-{4-[2-(3-methoxy-phenyl)-cyclohex-1-en-1-yl]-3-methyl-phenyl}-methanone], for which the inhibition at 0.1 µM came to 16%.

On to `Cc1cc(C(=O)N2Cc3cccn3Cc3ccccc32)ccc1C1=CC(=O)CCC1` [Example 39, 3-[4-(10,11-Dihydro-5H-pyrrolo[2,1-c][1,4]benzodiazepine-10-carbonyl)-2-methyl-phenyl]-cyclohex-2-en-1-one], for which the inhibition at 0.1 µM was 76%.

Regarding `Cc1cc(C(=O)N2Cc3cccn3Cc3ccccc32)ccc1C1=CC(O)CCC1` (centres unmarked) [Example 40, (10,11-Dihydro-5H-pyrrolo[2,1-c][1,4]benzodiazepin-10-yl)-[4-(3-hydroxy-cyclohex-1-en-1-yl)-3-methyl-phenyl]-methanone], the inhibition at 0.1 µM is 63%.

Consider `CO[C@@H]1CCCC(c2ccc(C(=O)N3Cc4cccn4Cc4ccccc43)cc2C)=C1C` [Example 44, 10-{4-[(3R)-3-Methoxy-2-methylcyclohex-1-en-1-yl]-3-methylbenzoyl}-10,11-dihydro-5H-pyrrolo[2,1-c][1,4]benzodiazepine], for which the inhibition at 0.1 µM is 96%.

In the case of `CC1=C(c2ccc(C(=O)N3Cc4cccn4Cc4ccccc43)cc2C)CCCC1N` (centres unmarked) [Example 45, [4-(3-Amino-2-methyl-cyclohex-1-en-1-yl)-3-methyl-phenyl]-(10,11-dihydro-5H-pyrrolo[2,1-c][1,4]benzodiazepin-10-yl)-methanone], the inhibition at 0.1 µM was 67%.

For the origin of these results see patent US7022699B2, “Cyclohexenyl phenyl diazepines vasopressin and oxytocin receptor modulators” (Wyeth, priority 2001, dated 2006).
